The values that follow come from patent publication US10194659B2, “Active compound combinations” (BAYER CROPSCIENCE AKTIENGESELLSCHAFT, priority 2014, dated 2019).

The subject of experiment [1] is Alternaria solani. Description: In vivo preventive test on Alternaria test (tomatoes). The note with it: evaluated 3 days after inoculation. The procedure:
(§1) To produce a suitable preparation of active compound, 1 part by weight of active compound is mixed with the stated amounts of solvent and emulsifier, and the concentrate is diluted with water to the desired concentration. To test for preventive activity, young plants are sprayed with the preparation of active compound at the stated rate of application. After the spray coating has dried on, the plants are inoculated with an aqueous spore suspension of Alternaria solani. The plants are then placed in an incubation cabinet at approximately 20° C. and a relative atmospheric humidity of 100%.
The test is evaluated 3 days after the inoculation. 0% means an efficacy which corresponds to that of the untreated control while an efficacy of 100% means that no disease is observed.

Experiment [2] relates to Blumeria graminis f.sp. hordei. Description: In vivo preventive Blumeria test (barley). The note with it: evaluated 7 days after inoculation. The procedure:
To produce a suitable preparation of active compound, 1 part by weight of active compound or active compound combination is mixed with the stated amounts of solvent and emulsifier, and the concentrate is diluted with water to the desired concentration. To test for preventive activity, young plants are sprayed with the preparation of active compound or active compound combination at the stated rate of application. After the spray coating has been dried, the plants are dusted with spores of Blumeria graminis f.sp. hordei. The plants are placed in the greenhouse at a temperature of approximately 18° C. and a relative atmospheric humidity of approximately 80% to promote the development of mildew pustules.
(§2) The test is evaluated 7 days after the inoculation. 0% means an efficacy which corresponds to that of the untreated control, while an efficacy of 100% means that no disease is observed.

The subject of experiment [3] is Botrytis cinerea. Description: In vivo preventive test on Botrytis test (beans). The note with it: lesion size evaluated 2 days after inoculation. The procedure:
To produce a suitable preparation of active compound, 1 part by weight of active compound is mixed with the stated amounts of solvent and emulsifier, and the concentrate is diluted with water to the desired concentration. To test for preventive activity, young plants are sprayed with the preparation of active compound. After the spray coating has dried on, 2 small pieces of agar covered with growth of Botrytis cinerea are placed on each leaf. The inoculated plants are placed in a darkened chamber at 20° C. and a relative atmospheric humidity of 100%.
2 days after the inoculation, the size of the lesions on the leaves is evaluated. 0% means an efficacy which corresponds to that of the untreated control, while an efficacy of 100% means that no disease is observed.

The subject of experiment [4] is Phakopsora pachyrhizi. Description: In vivo preventive test on Phakopsora test (soybeans). The note with it: evaluated 7 days after inoculation. The procedure: as §1, with “the causal agent of soybean rust (Phakopsora pachyrhizi) and stay for 24 h without light” for “Alternaria solani. The plants are then placed”, “24°” for “20°”, “95%. The plants remain in the incubation cabinet at approximately 24° C. and a relative atmospheric humidity of approximately 80% and a day/night interval of 12h.” for “100%.”
as §2

Experiment [5] concerns Pyrenophora teres. Put plainly: In vivo preventive Pyrenophora teres test (barley). The note with it: evaluated 8 days after inoculation. The procedure: (§3) To produce a suitable preparation of active compound, 1 part by weight of active compound or active compound combination is mixed with the stated amounts of solvent and emulsifier, and the concentrate is diluted with water to the desired concentration. To test for preventive activity, young plants are sprayed with the preparation of active compound or active compound combination at the stated rate of application. After the spray coating has been dried, the plants are sprayed with a spore suspension of Pyrenophora teres. The plants remain for 48 hours in an incubation cabinet at approximately 20° C. and a relative atmospheric humidity of approximately 100%. The plants are placed in the greenhouse at a temperature of approximately 20° C. and a relative atmospheric humidity of approximately 80%.
(§4) The test is evaluated 8 days after the inoculation. 0% means an efficacy which corresponds to that of the untreated control, while an efficacy of 100% means that no disease is observed.

Experiment [6] deals with Septoria tritici. Description: In vivo preventive Septoria tritici test (wheat). The note with it: evaluated 21 days after inoculation. The procedure:
as §3, with “suspension of Septoria tritici. The plants” for “suspension of Pyrenophora teres. The plants”, “of approximately 100% and afterwards for 60 hours at approximately 15° C. in a translucent incubation cabinet at a relative atmospheric humidity of approximately 100%. The” for “of approximately 100%. The”, “of approximately 15° C. and” for “of approximately 20° C. and”
The test is evaluated 21 days after the inoculation. 0% means an efficacy which corresponds to that of the untreated control, while an efficacy of 100% means that no disease is observed.

The subject of experiment [7] is Venturia inaequalis. Description: In vivo preventive test on Venturia test (apples). The note with it: evaluated 10 days after inoculation. The procedure:
as §1, with “conidia” for “spore”, “the causal agent of apple scab (Venturia inaequalis) and” for “Alternaria solani. The plants are”, “remain for 1 day” for “placed”, “100%. The plants are then placed in a greenhouse at approximately 21° C. and a relative atmospheric humidity of approximately 90%.” for “100%.”
The test is evaluated 10 days after the inoculation. 0% means an efficacy which corresponds to that of the untreated control, while an efficacy of 100% means that no disease is observed.

The test system of experiment [8] is Puccinia triticina. Put plainly: In vivo preventive Puccinia triticina test (wheat). The note with it: evaluated 8 days after inoculation. The procedure:
as §3, with “Puccinia triticina.” for “Pyrenophora teres.”
as §4

For experiment [9], the system named is Leptosphaeria nodorum. Put plainly: In vivo preventive Leptosphaeria nodorum test (wheat). The note with it: 25 ppm a.i., evaluated 8 days after inoculation. The procedure: as §3, with “suspension of Leptosphaeria nodorum. The plants” for “suspension of Pyrenophora teres. The plants”, “of approximately 25° C. and” for “of approximately 20° C. and”
as §4

Several values for one entry are separate records, joined by “and”; a condition that tells them apart may be missing. Equal values may be shown once.

Turning to `CCC1CC(C)(C)c2cccc(NC(=O)c3cccnc3C(F)F)c21` (stereo not shown) [(I-3), 2-(difluoromethyl)-N-(3-ethyl-1,1-dimethyl-2,3-dihydro-1H-inden-4-yl)nicotinamide], the “Efficacy in % found” value in experiment [1] (0.25 ppm a.i.) turned out to be 15%; in [1] (0.5 ppm a.i.), 45%; in experiment [1] (1 ppm a.i.), 45%; in [2] (50 ppm a.i.), 29%; in [2] (100 ppm a.i.), 57%; in experiment [3] (0.25 ppm a.i.), 0%. Moreover, the “Efficacy in % found” value was found to be 4% in [3] (0.5 ppm a.i.); 0% in experiment [3] (1 ppm a.i.); 24% in experiment [4] (0.25 ppm a.i.); 71% in [4] (0.5 ppm a.i.); 13% in experiment [5] (25 ppm a.i.); 38% in experiment [5] (50 ppm a.i.). The “Efficacy in % found” value in experiment [5] (100 ppm a.i.) is 50%; in experiment [6] (25 ppm a.i.), 17%; in experiment [6] (50 ppm a.i.) it was 83%; in experiment [7] (0.5 ppm a.i.), 11%.
As for `CCCC1CC(C)(C)c2cccc(NC(=O)c3cccnc3C(F)F)c21` (stereo not shown) [(I-5), 2-(difluoromethyl)-N-(1,1-dimethyl-3-propyl-2,3-dihydro-1H-inden-4-yl)nicotinamide], the “Efficacy in % found” value turned out to be 0% in experiment [1] (0.25 ppm a.i.); 8% in experiment [1] (0.5 ppm a.i.); 15% in [1] (1 ppm a.i.); 0% in experiment [3] (1 ppm a.i.); 78% in experiment [4] (0.25 ppm a.i.); 84% in [4] (0.5 ppm a.i.). In addition, the “Efficacy in % found” value in experiment [4] (1 ppm a.i.) was found to be 85%; in [8] (25 ppm a.i.), 50%; in [5] (25 ppm a.i.) it was 0%; in experiment [5] (50 ppm a.i.), 0%; in [5] (100 ppm a.i.), 50%; in experiment [7] (0.25 ppm a.i.) it was 0%. The “Efficacy in % found” value in [7] (0.5 ppm a.i.) is reported as 0%; in experiment [7] (1 ppm a.i.) it was 15%.
For `CC1CC(C)(C)c2cccc(NC(=O)c3cn(C)nc3C(F)F)c21` (stereo not shown) [1.032, 3-(difluoromethyl)-1-methyl-N-(1,1,3-trimethyl-2,3-dihydro-1H-inden-4-yl)-1H-pyrazole-4-carboxamide, reference compound], the “Efficacy in % found” value in experiment [1] (0.5 ppm a.i.) is 0%; in experiment [1] (1 ppm a.i.), 15% and 8%; in experiment [3] (0.25 ppm a.i.), 18%; in [3] (0.5 ppm a.i.), 0%; in experiment [4] (0.25 ppm a.i.), 0%; in [4] (0.5 ppm a.i.), 0%. The “Efficacy in % found” value in experiment [4] (1 ppm a.i.) and in [7] (0.5 ppm a.i.) was 0% in each case.
Take `CCC[C@@H]1CC(C)(C)c2cccc(NC(=O)c3cccnc3C(F)F)c21` [(I-6), 2-(difluoromethyl)-N-[(3R)-1,1-dimethyl-3-propyl-2,3-dihydro-1H-inden-4-yl]nicotinamide]: the “Efficacy in % found” value in experiment [1] (0.25 ppm a.i.) amounted to 15%; in [1] (0.5 ppm a.i.), 23%; in experiment [1] (1 ppm a.i.), 45%; in [2] (50 ppm a.i.), 40%; in [3] (0.25 ppm a.i.), 0%; in experiment [3] (0.5 ppm a.i.) it was 0%. Moreover, the “Efficacy in % found” value in [4] (0.5 ppm a.i.) turned out to be 92%; in experiment [8] (25 ppm a.i.), 90%; in [7] (0.25 ppm a.i.) it was 0%; in [7] (0.5 ppm a.i.), 5%; in [7] (1 ppm a.i.), 10%.
For the molecule `CC[C@@H]1CC(C)(C)c2cccc(NC(=O)c3cccnc3C(F)F)c21` [(I-4), 2-(difluoromethyl)-N-[(3R)-3-ethyl-1,1-dimethyl-2,3-dihydro-1H-inden-4-yl]nicotinamide], the “Efficacy in % found” value was 23% in [1] (0.25 ppm a.i.); 30% in experiment [1] (0.5 ppm a.i.); 55% in experiment [1] (1 ppm a.i.); 0% in [2] (25 ppm a.i.); 0% in [9]; 35% in [4] (0.25 ppm a.i.). Besides, the “Efficacy in % found” value worked out at 87% in [4] (1 ppm a.i.); 80% in [8] (12.5 ppm a.i.); 22% in experiment [5] (12.5 ppm a.i.); 22% in experiment [5] (25 ppm a.i.); 33% in [5] (50 ppm a.i.); 12% in experiment [7] (0.5 ppm a.i.). In addition, the “Efficacy in % found” value in experiment [7] (1 ppm a.i.) was 21%.
Consider `Cn1cc(C(=O)Nc2ccccc2-c2cc(F)c(F)c(F)c2)c(C(F)F)n1` [1.008, fluxapyroxad, reference compound], for which the “Efficacy in % found” value in experiment [1] (0.25 ppm a.i.) is 15% and 8%; in [1] (0.5 ppm a.i.), 45%; in experiment [1] (1 ppm a.i.) it was 55% and 78%; in experiment [3] (1 ppm a.i.), 8% and 0%; in [4] (0.25 ppm a.i.), 9% and 0%; in [4] (0.5 ppm a.i.) it was 0%. For the same molecule, the “Efficacy in % found” value is 0% in experiment [4] (1 ppm a.i.); 8% and 10% in [7] (0.5 ppm a.i.).
